The values that follow come from patent publication US10258556B2, “Anti-aging peptide, its composition and method of using the same” (priority 2017, dated 2019).

The subject of this data set is CCD-966SK fibroblast cells. Put plainly: MTT assay (cell viability). Type of data set: cell-based, human. The conditions noted are these: peptide at different concentrations, 24, 48 and 72 hours, FIG. 3. How it is done:
CCD-966SK was skin fibroblast cells isolated from human breast and was purchased from BCRC (Bioresource Collection and Research Center, Hsinchu, Taiwan). It was cultured in Dulbecco's Modified Eagle Medium (DMEM) containing 10% (v/v) FBS and penicillin/streptomycin (100 IU/[…]) in 5% CO2 at 37° C.
The cells (3×10^3) in 100 μl complete DMEM were seeded in 96-well plates with or without MUC20 peptide NO.10. Ten microliters of 5 mg/ml 3-(4,5-dimethyl-2-thiazolyl)-2,5-diphenyl-2H-tetrazolium bromide solution (MTT; Sigma) was added to each well and incubated at 37° C. for 3 hours. After that, 100 μl 10% SDS in 0.01N HCl was added to dissolve the MTT formazan crystals. The resultant optical density was measured by spectrophotometry at dual wavelengths, 550 and 630 nm.
The cell viability of the CCD-966SK fibroblast cells was analyzed by MTT assays. The results were obtained from three independent experiments. The results of the cells treated with the peptide of SEQ ID NO: 1 for 24 hours (upper panel), 48 hours (middle panel), and 72 hours (lower panel) were shown in FIG. 3.
Background: Formazan colour is commonly taken as a measure of viable cells.

The structures appear in SMILES notation. Residues, ends and D or L forms follow the SMILES beside them.

Turning to `C[C@H](NC(=O)[C@H](CCC(=O)O)NC(=O)[C@@H](NC(=O)[C@H](CO)NC(=O)[C@H](CC(=O)O)NC(=O)[C@@H]1CCCN1)[C@@H](C)O)C(=O)N[C@@H](CCCCN)C(=O)O` [peptide of SEQ ID NO: 1, ProAspSerThrGluAlaLys] (H-PDSTEAK-OH), the “viability of the CCD-966SK fibroblast cells” value is recorded as “did not significantly affect viability”.
